Data on one molecule can be found in US20210030829A1, “METHODS FOR TREATMENT OF CANCER AND ENHANCEMENT OF NANOPARTICLE ACCUMULATION IN TISSUES” (University of Louisville Research Foundation, Inc., priority 2018, published 2021).

SMILES strings stand for the structures.

On the set-up of this data set: species or system male C57BL/6 mice. The conditions noted are these: mouse, in vivo.

Turning to `CCCCCCCCCCCCCCCCCCN1/C(=C/C=C/C=C/C=C/C2=[N+](CCCCCCCCCCCCCCCCCC)c3ccccc3C2(C)C)C(C)(C)c2ccccc21.[I-]` [free DiR, 1,1-dioctadecyl-3,3,3′,3′-tetramethylindotricarbocyanine-iodide], the Visible abnormality result was “No visible abnormality”.
